ChEMBL document CHEMBL1201862, “PubChem BioAssay data set” (2004)
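Five concentrations, 48 hours, 96-well plates. The concentration for 50% growth inhibition is given as GI50.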 Activity calls are given as the source filed them. Cut-off read from the data, not from the text of the source: active = GI50 up to about 1.1 µM and inactive = higher.

Key:
Experiment in all cases: growth of human tumour cells (NCI), 48 h
A549 = tested on: A549
CAKI-1 = tested on: CAKI-1
CCRF-CEM = tested on: CCRF-CEM
EKVX = tested on: EKVX
HCC 2998 = tested on: HCC 2998
HL-60 = tested on: HL-60
MDA-MB-435 = tested on: MDA-MB-435
MDA-N = tested on: MDA-N
Malme-3M = tested on: Malme-3M
NCI-H460 = tested on: NCI-H460
NCI-H522 = tested on: NCI-H522
OVCAR-5 = tested on: OVCAR-5
OVCAR-8 = tested on: OVCAR-8
SF-539 = tested on: SF-539
SK-MEL-2 = tested on: SK-MEL-2
SN12C = tested on: SN12C
SNB-75 = tested on: SNB-75
T47D = tested on: T47D
U-251 = tested on: U-251

Row | Structure (SMILES) | GI50 (A549) | GI50 (CAKI-1) | GI50 (CCRF-CEM) | GI50 (EKVX) | GI50 (HCC 2998) | GI50 (HL-60) | GI50 (MDA-MB-435) | GI50 (MDA-N) | GI50 (Malme-3M) | GI50 (NCI-H460) | GI50 (NCI-H522) | GI50 (OVCAR-5) | GI50 (OVCAR-8) | GI50 (SF-539) | GI50 (SK-MEL-2) | GI50 (SN12C) | GI50 (SNB-75) | GI50 (T47D) | GI50 (U-251)
1 | O=C(Nc1ccccc1)OCCN=C1c2ccccc2C(Br)C(Br)c2ccccc21 (stereo not drawn) | 16 µM (inactive) | 6.49 µM (inactive) | 1.49 µM (inactive) | 10 µM (inactive) | 14.8 µM (inactive) | 1.92 µM (inactive) | 7.93 µM (inactive) | 3.82 µM (inactive) | 6.15 µM (inactive) | 12.1 µM (inactive) | 5.37 µM (inactive) | 16 µM (inactive) | 4.09 µM (inactive) | 5.07 µM (inactive) | 22.2 µM (inactive) | 11.1 µM (inactive) | 13.3 µM (inactive) | 8.69 µM (inactive) | 8.45 µM (inactive)
2 | O=C1C=C(Nc2ccc(S(=O)(=O)Nc3nccs3)cc2)c2ccccc2C1=O | > 100 µM (inactive) | 26.8 µM (inactive) | 15.2 µM (inactive) | 26.4 µM (inactive) | 22.2 µM (inactive) | 24.7 µM (inactive) | 17.7 µM (inactive) | 18.8 µM (inactive) | 21 µM (inactive) | 34 µM (inactive) | 38.5 µM (inactive) | 17.5 µM (inactive) | 23.1 µM (inactive) | 21.1 µM (inactive) | 28.6 µM (inactive) | 24.6 µM (inactive) | 21.5 µM (inactive) | 69.5 µM (inactive) | 21.6 µM (inactive)
3 | CCOC(=O)C(=Cn1c(=S)[nH]c2ccc([N+](=O)[O-])cc21)C(=O)OCC | > 100 µM (inactive) | > 100 µM (inactive) | > 100 µM (inactive) | > 100 µM (inactive) | > 100 µM (inactive) | > 100 µM (inactive) | > 100 µM (inactive) | > 100 µM (inactive) | > 100 µM (inactive) | > 100 µM (inactive) | > 100 µM (inactive) | > 100 µM (inactive) | > 100 µM (inactive) | > 100 µM (inactive) | > 100 µM (inactive) | > 100 µM (inactive) | 47.9 µM (inactive) | 59.6 µM (inactive) | > 100 µM (inactive)
4 | C#CCN(Cc1ccc2nc(OC)c(OC)nc2c1)c1cc(OC)c(OC)c(OC)c1 | 18.4 µM (inactive) | 24.2 µM (inactive) | 34.9 µM (inactive) | 14.8 µM (inactive) | 35.1 µM (inactive) | 12.7 µM (inactive) | 6.59 µM (inactive) | 7.31 µM (inactive) | 23 µM (inactive) | 20 µM (inactive) | 9.44 µM (inactive) | 40.2 µM (inactive) | 20.7 µM (inactive) | 18.5 µM (inactive) | 23.1 µM (inactive) | 18.2 µM (inactive) | 33.7 µM (inactive) | 18.4 µM (inactive) | 23.9 µM (inactive)
5 | CCOC(=O)/C(C(C)=O)=C(\OC(C)=O)c1ccncc1C(=O)O | > 100 µM (inactive) | > 100 µM (inactive) | > 100 µM (inactive) | > 100 µM (inactive) | > 100 µM (inactive) | > 100 µM (inactive) | > 100 µM (inactive) | > 100 µM (inactive) | > 100 µM (inactive) | > 100 µM (inactive) | > 100 µM (inactive) | > 100 µM (inactive) | > 100 µM (inactive) | > 100 µM (inactive) | > 100 µM (inactive) | > 100 µM (inactive) | > 100 µM (inactive) | > 100 µM (inactive) | > 100 µM (inactive)
6 | CC(=O)c1c(C(F)(F)F)[n+]([O-])c2cc(Cl)c(Cl)cc2[n+]1[O-] | 0.575 µM (active) | 1.44 µM (inactive) | 0.146 µM (active) | 1.29 µM (inactive) | 0.184 µM (active) | 0.338 µM (active) | 1.3 µM (inactive) | 1.12 µM (inactive) | 0.685 µM (active) | 0.242 µM (active) | 0.165 µM (active) | 1.63 µM (inactive) | 0.531 µM (active) | 1.15 µM (inactive) | 1.19 µM (inactive) | 1.12 µM (inactive) | 1.07 µM (active) | 0.338 µM (active) | 1.24 µM (inactive)
7 | N=c1oc2ccc(Cl)cc2cc1C(=O)NCc1ccccc1 | > 100 µM (inactive) | > 100 µM (inactive) | 21.5 µM (inactive) | > 100 µM (inactive) | > 100 µM (inactive) | 11 µM (inactive) | 78.3 µM (inactive) | > 81.7 µM (inactive) | 18.4 µM (inactive) | > 100 µM (inactive) | 24.7 µM (inactive) | > 100 µM (inactive) | > 100 µM (inactive) | > 100 µM (inactive) | 51.1 µM (inactive) | > 100 µM (inactive) | 22.4 µM (inactive) | 39 µM (inactive) | > 86.3 µM (inactive)
